Key:
human ENT1 = molecular target: T1, human ENT1 (Homo sapiens, UniProt Q99808); assay: ENT1 binding assay (competition with Sahenta-DY647 on JAR cells); details: competition with SAHENTA-DY647 binding; IC50 categorized; read-out: Binding Assay IC50
T1 construct: JAR cells expressing ENT1 were purchased from ATCC; host or cells: JAR cells
T1 sequence (Q99808 1-456): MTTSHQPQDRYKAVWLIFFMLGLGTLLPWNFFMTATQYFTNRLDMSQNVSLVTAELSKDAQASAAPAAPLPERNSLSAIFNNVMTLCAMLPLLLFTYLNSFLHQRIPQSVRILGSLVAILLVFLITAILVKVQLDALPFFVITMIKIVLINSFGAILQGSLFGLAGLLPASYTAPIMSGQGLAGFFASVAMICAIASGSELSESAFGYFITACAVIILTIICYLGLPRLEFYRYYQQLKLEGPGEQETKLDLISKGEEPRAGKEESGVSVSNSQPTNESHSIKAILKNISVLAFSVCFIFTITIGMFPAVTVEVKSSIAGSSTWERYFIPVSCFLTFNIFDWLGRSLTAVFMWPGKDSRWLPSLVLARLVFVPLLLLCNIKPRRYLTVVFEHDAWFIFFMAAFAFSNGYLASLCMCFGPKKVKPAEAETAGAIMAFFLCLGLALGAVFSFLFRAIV
How it was run: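 Fluorescent-tracer displacement: compound incubated with JAR cells 30 min, 4 °C, before Sahenta-DY647 (100 nM) for another 30 min, 4 °C, in Hepes-buffered HBSS with 0.1% BSA. Bound tracer read at 670 nm after washes; IC50 from four-parameter fit, reported as mean of pIC50 values.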

[1] = system: stimulated primary human T cells; assay: T cell proliferation assay, Condition B (X-VIVO15, 2% HSA and 0.1% AAG); assay type: cell-based; details: Homo sapiens, T-cell, 96 h; Condition B: X-VIVO15 medium containing HSA and α1-Acid Glycoprotein; anti-CD3/anti-CD28 beads, ATP, 4 days; CFSE-lo T cells
Protocol: (§1) The goal of this study was to determine the potency of ENT1 inhibitors by measuring the rescued proliferation of stimulated primary human T cells incubated in the presence of 100 uM Adenosine triphosphate (ATP), in baseline conditions (condition A) or in the presence of various proteins known to bind small molecules (condition B).
Condition B: X-VIVO15, 2% Human Serum Albumin (HSA) and 0.1% α-1-Acid Glycoprotein (AAG)
(§2) Venous blood from healthy volunteers, all of whom signed an informed consent approved by the Ethics Committee (FOR—UIC—BV-050-01-01 ICF_HBS_HD Version 5.0), was obtained by ImmuneHealth (Centre Hospitalier Universitaire Tivoli, La Louviere, Belgium). Mononuclear cells were collected by density gradient centrifugation, using SepMate-50 tubes (StemCell Technologies, Grenoble, France) and Lymphoprep (Stemcell Technologies) according to the manufacturer's instructions. CD3+ T cells were isolated by immunomagnetic negative selection, using the EasySep Human T Cell Isolation Kit (StemCell Technologies) as per the manufacturer's instructions. CD3+ T cells were stored in heat inactivated FBS (hiFBS; Gibco, ThermoFisher Scientific, Merelbeke, Belgium) and 10% DMSO in liquid nitrogen.
(§3) Purified human CD3+ T cells were thawed and washed once with RPMI1640 medium, UltraGlutamine (Lonza, Verviers, Belgium) containing 10% hiFBS. Cells were resuspended in PBS containing 10% hiFBS at 1×10^7 cells/ml. One volume of cells was combined with a matching volume of 2 μM CFSE solution in PBS, mixed well by pipetting, and incubated at room temperature for 5 minutes under rotation and protected from light. Excess CFSE was quenched by addition of PBS containing 10% hiFBS, and the cells were centrifuged (300×rcf, 7 minutes) and resuspended in X-VIVO15. Cells were again centrifuged and resuspended in X-VIVO15 for counting.
(§4) Cells were resuspended at 1.6×10^6 cells/mL in X-VIVO15 medium (Condition A) or X-VIVO15 medium containing 4% (v/v) HSA (Sigma-Aldrich, Diegem, Belgium) and 0.2% (v/v) ai-Acid Glycoprotein (Sigma-Aldrich, Diegem, Belgium) (Condition B).
(§5) […] of cell suspension (2×10^4 cells) was added to wells of sterile flat-bottom 384-well plates. Cells were activated by adding […] of anti-CD3 anti-CD28 coated microbeads (Dynabeads human T-activator CD3/CD28; Life Technologies, Paisley, UK) suspended in X-VIVO15 medium or X-VIVO15 medium containing 4% (v/v) HSA and 0.2% (v/v) ai-Acid Glycoprotein at a ratio of one microbead per two cells. Serial dilutions of the ENT1 inhibitors were conducted in X-VIVO15 medium and […] of the diluent was added to the wells. Cells were mixed by pipetting up and down and pre-incubated for 30 minutes in a 37° C. humidified tissue culture incubator with 5% CO2. After pre-incubation, cells were cultured in the presence or absence of ATP (Sigma-Aldrich) at a final concentration of […]. The final well volume was 50 μl in all cases. Experiments were performed in biological duplicates. Cells were mixed by pipetting up and down and incubated for 4 days in a 37° C. humidified tissue culture incubator with 5% CO2.
(§6) Samples were run on a BD LSR Fortessa FACS machine (BD FACSDiva Software v9.0.1). Data were analyzed using FlowJo (BD, v10.7.1). T cell proliferation was determined by measuring the frequency of ‘CFSE^lo’ (i.e. CFSE-diluted).
(§7) T cell proliferation data were analyzed using FlowJo software (Version 10.6.2). Dead cells and cellular debris were excluded on the basis of forward and side scatter profile and singlet cells were selected for further analysis.
(§8) T cell proliferation was determined based on the percent CFSE^lo total T cells for each condition. The data were plotted on the y-axis against log molar (M) concentration of ENT1 inhibitors on the x-axis in GraphPad Prism (version 9.0.0). IC50 and IC90 values were generated with the ‘log(agonist) vs. response—Find ECanything(F))’ function with F constrained to 50 or 90, respectively. pICF values were generated by taking the −logECF values.

[2] = system: stimulated primary human T cells; assay: T cell proliferation assay, Condition A (X-VIVO15); assay type: cell-based; details: Homo sapiens, T-cell, 96 h; Condition A: X-VIVO15 medium; anti-CD3/anti-CD28 beads, ATP, 4 days; CFSE-lo T cells
Protocol: as §1, §2, §3, §4, §5, §6, §7, §8

Row | IC50 (human ENT1) [nM] | Compound | IC50 [1] [nM] | IC50 [2] [nM]
1 | 1 to 20 | C[C@H]1O[C@@H](n2c(OCc3ccccc3)nc3c(OCc4ccc([N+](=O)[O-])cc4)ncnc32)[C@H](O)[C@@H]1O [Compound 2] | 20 to 500 | < 1
2 | 1 to 20 | C[C@H]1O[C@@H](n2c(NC3CCCC3)nc3c(OCc4ccccc4)ncnc32)[C@H](O)[C@@H]1O [Compound 5] | 20 to 500 | 1 to 20
3 | 1 to 20 | C[C@H]1O[C@H](n2c(NCc3ccccc3)nc3c(OCc4ccc(OC(F)F)cc4)ncnc32)[C@H](O)[C@@H]1O [Compound 8] | 20 to 500 | < 1
4 | < 1 | C[C@H]1O[C@@H](n2c(NC3CCC(F)(F)C3)nc3c(OCc4ccc([N+](=O)[O-])cc4)ncnc32)[C@H](O)[C@@H]1O (stereo partly drawn) [Compound 9] | 1 to 20 | < 1
5 | 1 to 20 | C[C@H]1O[C@@H](n2c(NC3CCC(F)(F)CC3)nc3c(OCc4ccc([N+](=O)[O-])cc4)ncnc32)[C@H](O)[C@@H]1O [Compound 10] | 1 to 20 | < 1
6 | < 1 | C[C@H]1O[C@@H](n2c(NC3CCCC3)nc3c(OCc4ccc(OC(F)F)cc4)ncnc32)[C@H](O)[C@@H]1O [Compound 11] | 1 to 20 | < 1
7 | < 1 | C[C@H]1O[C@@H](n2c(NC3CCCC3)nc3c(OCc4ccc(C#N)cc4)ncnc32)[C@H](O)[C@@H]1O [Compound 12] | 20 to 500 | < 1
8 | < 1 | C[C@H]1O[C@@H](n2c(NC3CCCC3)nc3c(OCc4ccc(OC(F)F)nc4)ncnc32)[C@H](O)[C@@H]1O [Compound 14] | 20 to 500 | < 1
9 | 1 to 20 | C[C@H]1O[C@@H](n2c(Nc3cnn(C)c3)nc3c(OCc4ccc([N+](=O)[O-])cc4)ncnc32)[C@H](O)[C@@H]1O [Compound 17] | 20 to 500 | 1 to 20
10 | 1 to 20 | C[C@H]1O[C@@H](n2c(NC3CCOC3)nc3c(OCc4ccc([N+](=O)[O-])cc4)ncnc32)[C@H](O)[C@@H]1O (stereo partly drawn) [Compound 18] | 1 to 20 | < 1
11 | 1 to 20 | CCNc1nc2c(OCc3ccc([N+](=O)[O-])cc3)ncnc2n1[C@@H]1O[C@H](C)[C@@H](O)[C@H]1O [Compound 20] | 20 to 500 | < 1
12 | 1 to 20 | C[C@H]1O[C@@H](n2c(NCCO)nc3c(OCc4ccc([N+](=O)[O-])cc4)ncnc32)[C@H](O)[C@@H]1O [Compound 21] | 20 to 500 | 1 to 20
13 | 1 to 20 | C[C@H]1O[C@@H](n2c(NCCCO)nc3c(OCc4ccc([N+](=O)[O-])cc4)ncnc32)[C@H](O)[C@@H]1O [Compound 22] | 20 to 500 | 1 to 20
14 | 1 to 20 | COCCNc1nc2c(OCc3ccc([N+](=O)[O-])cc3)ncnc2n1[C@@H]1O[C@H](C)[C@@H](O)[C@H]1O [Compound 23] | 20 to 500 | < 1
15 | 1 to 20 | C[C@H]1O[C@@H](n2c(NCC(F)(F)F)nc3c(OCc4ccc([N+](=O)[O-])cc4)ncnc32)[C@H](O)[C@@H]1O [Compound 24] | 20 to 500 | 1 to 20
16 | 1 to 20 | COCCCNc1nc2c(OCc3ccc(OC(F)F)cc3)ncnc2n1[C@@H]1O[C@H](C)[C@@H](O)[C@H]1O [Compound 46] | 20 to 500 | 
17 | 1 to 20 | C[C@H]1O[C@@H](n2c(Nc3cnn(C)c3)nc3c(OCc4ccc(OC(F)F)cc4)ncnc32)[C@H](O)[C@@H]1O [Compound 64] | 20 to 500 | 
18 | 1 to 20 | C[C@H]1O[C@@H](n2c(NCc3cnn(C)c3)nc3c(OCc4ccc(OC(F)F)cc4)ncnc32)[C@H](O)[C@@H]1O [Compound 66] | 20 to 500 | 
19 | 1 to 20 | Cc1nc(CNc2nc3c(OCc4ccc(C#N)cc4)ncnc3n2[C@@H]2O[C@H](C)[C@@H](O)[C@H]2O)no1 [Compound 68] | 20 to 500 | 
20 | 1 to 20 | C[C@H]1O[C@@H](n2c(NCc3ccc(C#N)nc3)nc3c(OCc4ccc(C#N)cc4)ncnc32)[C@H](O)[C@@H]1O [Compound 70] | 20 to 500 | 
21 | 1 to 20 | C[C@H]1O[C@@H](n2c(NC3CCCC3)nc3c(OCc4ccc(C#N)nc4)ncnc32)[C@H](O)[C@@H]1O [Compound 74] | 20 to 500 | 
22 | 1 to 20 | C[C@H]1O[C@@H](n2c(NC3CCOCC3)nc3c(OCc4ccc(C#N)nc4)ncnc32)[C@H](O)[C@@H]1O [Compound 76] | 20 to 500 | 
23 | 1 to 20 | C[C@H]1O[C@@H](n2c(N[C@H]3CCOC3)nc3c(OCc4ccc(C#N)cc4)ncnc32)[C@H](O)[C@@H]1O [Compound 78] | 20 to 500 | 
24 | < 1 | CC(=O)N1CCC(Nc2nc3c(OCc4ccc(C#N)cc4)ncnc3n2[C@@H]2O[C@H](C)[C@@H](O)[C@H]2O)CC1 [Compound 80] | 1 to 20 | 
25 | 1 to 20 | C[C@H]1O[C@@H](n2c(NC3CCCC3)nc3c(OCc4ccc(OC(F)(F)F)nc4)ncnc32)[C@H](O)[C@@H]1O [Compound 87] | 20 to 500 | 
26 | 1 to 20 | C[C@H]1O[C@@H](n2c(NC3CCC(O)C3)nc3c(OCc4ccc(C(F)(F)F)cc4)ncnc32)[C@H](O)[C@@H]1O (stereo partly drawn) [Compound 100] | 20 to 500 | 
27 | < 1 | Cc1cc(COc2ncnc3c2nc(NC2CCOCC2)n3[C@@H]2O[C@H](C)[C@@H](O)[C@H]2O)ccc1[N+](=O)[O-] [Compound 103] | 20 to 500 | 
28 | 1 to 20 | C[C@H]1O[C@@H](n2c(NCC3CCC(F)(F)C3)nc3c(OCc4ccc(OC(F)F)nc4)ncnc32)[C@H](O)[C@@H]1O (stereo partly drawn) [Compound 115] | > 500 | 
29 | 1 to 20 | C[C@H]1O[C@@H](n2c(NCC3CCC(F)(F)CC3)nc3c(OCc4ccc(OC(F)F)nc4)ncnc32)[C@H](O)[C@@H]1O [Compound 116] | 20 to 500 | 
30 | 1 to 20 | C[C@H]1O[C@@H](n2c(N[C@H]3CC[C@](C)(O)CC3)nc3c(OCc4ccc(OC(F)F)cc4)ncnc32)[C@H](O)[C@@H]1O [Compound 121] | 20 to 500 | 
